Where two headings read alike, the source gives them in different places.
Columns and labels:
UGT1A9 [1] = target: T1, UGT1A9 (Homo sapiens, UniProt O60656); conditions: substrate inhibition model, propofol glucuronidation
T1 sequence (O60656 26-530): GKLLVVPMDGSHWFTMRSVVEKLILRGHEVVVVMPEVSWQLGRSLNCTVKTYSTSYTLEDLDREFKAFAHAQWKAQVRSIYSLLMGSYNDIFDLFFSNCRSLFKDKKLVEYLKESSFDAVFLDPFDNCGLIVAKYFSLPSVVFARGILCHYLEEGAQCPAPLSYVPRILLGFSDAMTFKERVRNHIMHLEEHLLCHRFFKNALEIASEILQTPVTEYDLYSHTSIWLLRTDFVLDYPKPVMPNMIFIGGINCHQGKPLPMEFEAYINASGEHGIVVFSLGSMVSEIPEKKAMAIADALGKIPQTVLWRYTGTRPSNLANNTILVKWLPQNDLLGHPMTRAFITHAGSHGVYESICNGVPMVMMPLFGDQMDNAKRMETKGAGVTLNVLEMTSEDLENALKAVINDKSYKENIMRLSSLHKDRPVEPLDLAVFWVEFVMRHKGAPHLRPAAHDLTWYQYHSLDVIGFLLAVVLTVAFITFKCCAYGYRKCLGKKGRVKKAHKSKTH

UGT1A9 [2] = target: T1, UGT1A9
UGT2B7 = target: T2, UGT2B7 (Homo sapiens, UniProt P16662); conditions: data not shown
T2 sequence (P16662 24-529): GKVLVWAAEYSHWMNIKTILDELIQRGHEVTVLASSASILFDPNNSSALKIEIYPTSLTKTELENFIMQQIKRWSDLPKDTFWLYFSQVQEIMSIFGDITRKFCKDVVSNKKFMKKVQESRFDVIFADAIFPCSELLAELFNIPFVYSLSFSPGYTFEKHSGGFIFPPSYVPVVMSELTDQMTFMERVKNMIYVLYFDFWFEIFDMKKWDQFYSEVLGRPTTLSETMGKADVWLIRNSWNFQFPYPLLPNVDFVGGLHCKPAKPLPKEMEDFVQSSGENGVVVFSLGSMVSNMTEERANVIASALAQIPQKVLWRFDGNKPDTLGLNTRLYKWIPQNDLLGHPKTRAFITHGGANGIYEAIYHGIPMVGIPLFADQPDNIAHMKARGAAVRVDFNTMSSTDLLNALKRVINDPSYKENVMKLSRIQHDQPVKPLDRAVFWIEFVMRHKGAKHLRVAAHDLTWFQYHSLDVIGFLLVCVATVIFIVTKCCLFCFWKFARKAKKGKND

CC(C)c1cccc(C(C)C)c1O [propofol]
Ki (UGT1A9 [1]; human hepatocytes treated with UGT1A9 siRNA): 448 ± 203 µM
Ki (UGT1A9 [1]; human hepatocytes treated with UGT2B7 siRNA): 199 ± 88.9 µM
Ki (UGT1A9 [1]; human hepatocytes, OPTI Only): 362 ± 31.3 µM
Ki (UGT1A9 [1]; human hepatocytes, TR Only): 521 ± 46.3 µM

propofol glucuronide
UGT1A9 activity remained (UGT1A9 [2]): greater than 60%
inhibition of 2,6-dimethylphenol glucuronidation (UGT1A9 [2]): only weak inhibition
inhibition of UGT2B7-catalyzed morphine glucuronidation (UGT2B7): No inhibition

From article PMC4059507 (Archives of biochemistry and biophysics, 2013)
